One block for each molecule: values may come before it.
Tests used:
[1] = design: method as in Johannessen, 2004; Patsalos, 2008; Lee, 2016; settings: patients with epilepsy; ref Johannessen, 2004; Patsalos, 2008; Lee, 2016; cited from earlier work
BCRP [2] = target: T1, BCRP (Homo sapiens, UniProt Q9UNQ0); settings: previous data; cited from earlier work
T1 sequence (Q9UNQ0 1-655): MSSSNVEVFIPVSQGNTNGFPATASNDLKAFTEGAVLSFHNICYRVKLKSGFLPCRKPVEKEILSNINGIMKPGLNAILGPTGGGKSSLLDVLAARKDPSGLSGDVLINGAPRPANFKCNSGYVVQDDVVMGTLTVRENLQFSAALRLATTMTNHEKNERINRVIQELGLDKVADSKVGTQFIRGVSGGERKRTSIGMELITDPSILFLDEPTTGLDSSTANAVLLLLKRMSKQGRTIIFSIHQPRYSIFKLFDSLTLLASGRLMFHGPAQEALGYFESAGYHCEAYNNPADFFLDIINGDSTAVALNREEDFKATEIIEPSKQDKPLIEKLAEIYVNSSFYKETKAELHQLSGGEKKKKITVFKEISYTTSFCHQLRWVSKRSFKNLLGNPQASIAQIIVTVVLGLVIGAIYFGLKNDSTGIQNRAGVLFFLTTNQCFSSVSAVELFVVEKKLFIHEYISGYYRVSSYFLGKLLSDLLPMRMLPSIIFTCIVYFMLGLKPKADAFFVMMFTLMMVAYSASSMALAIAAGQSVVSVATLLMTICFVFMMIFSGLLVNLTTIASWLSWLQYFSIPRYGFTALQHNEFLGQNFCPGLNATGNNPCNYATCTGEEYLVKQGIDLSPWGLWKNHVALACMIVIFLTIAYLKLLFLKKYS

BCRP [3] = target: T1, BCRP; design: host or cells: MCF-7 cells overexpressing BCRP; settings: previous study; cited from earlier work
BCRP [4] = target: T1, BCRP; test: bidirectional transport assay across hCMEC/D3 cell monolayer with or without Ko143; settings: for transport by BCRP (conclusion of bidirectional transport assay): ER ≥ 1.5 and significantly reduced by Ko143; for Papp A→B at 2 h, 40 μM / Papp A→B at 2 h, 80 μM / Papp B→A at 2 h, 40 μM / Papp B→A at 2 h, 80 μM / efflux ratio at 2 h, 40 μM / efflux ratio at 2 h, 80 μM / Papp A→B at 2 h, 300 µM / Papp A→B at 2 h, 600 μM / Papp B→A at 2 h, 300 µM / Papp B→A at 2 h, 600 μM / efflux ratio at 2 h / efflux ratio at 2 h, 300 µM / efflux ratio at 2 h, 600 μM: human
Description: For transport assays, hCMEC/D3 cells were seeded on collagen type I‐coated Transwell inserts (polycarbonate 12‐well, pore size […]) (cat. no. CLS3460; Corning, NY, USA) at 80% confluency and cultured as described in section 2.5. In brief, the drug was dissolved in Hanks’ balanced salt solution supplemented with 10 mM HEPES, 1 mM Na‐Pyruvate, pH 7.4 at 37°C (transport buffer). Initially, both sides of the chamber were washed with 1X PBS and the assay was performed with pre‐warmed transport buffer. 0.5 ml or 1.5 ml of the drug solution, with or without BCRP‐specific inhibitor Ko143 (1 μM) was added to either the apical side or basolateral side of the monolayer, respectively, and fresh transport buffer was added to the opposite side. Aliquots of 100 μl samples were taken from the opposite sides every 30 min for 2 h, and the same amount of fresh transport buffer was added to the same chamber after each sampling. […] Concentrations of ASMs were evaluated by HPLC or LC/MS. Apparent permeability (Papp) is defined as the transport rate of ASM and efflux ratio (ER) was calculated as the ratio of Papp in the basolateral‐to‐apical (Papp(B→A)) direction to the Papp in the apical‐to‐basolateral (Papp(A→B)) direction. The samples were stored at −20°C until analysis. […] Fluorescence detection of lucifer yellow (excitation at 430 nm, and emission at 535 nm) was carried out with Infinite 200 PRO NanoQuant (Tecan, Zurich, Switzerland). […] All transport assays were performed in triplicate.
The calculation for apparent permeability coefficient, Papp, was performed as described before. Papp=dQr/dt/A×C0 where dQr/dt is the cumulative amount in the receiver side vs time in μM/s
A is the area of the cell monolayer
C0 is the initial concentration of the dosing solution (μM).
And, Efflux ratio=Papp(B−to−A)/Papp(A−to−B)

- Efflux ratio (ER), hCMEC/D3 without inhibitor Ko143 (BCRP [4]; 80 μM, hCMEC/D3 monolayer): 1.53
- transport by BCRP (conclusion of bidirectional transport assay) (BCRP [4]; hCMEC/D3 monolayer): not
- Papp A→B at 2 h, 40 μM (BCRP [4]; pH 7.4): 2.12 ×10⁻⁶ cm/s
- Papp A→B at 2 h, 80 μM (BCRP [4]; pH 7.4): 3.09 ×10⁻⁶ cm/s
- Papp B→A at 2 h, 40 μM (BCRP [4]; pH 7.4): 2.59 ×10⁻⁶ cm/s
- Papp B→A at 2 h, 80 μM (BCRP [4]; pH 7.4): 3.36 ×10⁻⁶ cm/s
- efflux ratio at 2 h, 40 μM (BCRP [4]; pH 7.4, Efflux ratio (ER), hCMEC/D3 without inhibitor Ko143, 40 μM, hCMEC/D3 monolayer): 1.28
- efflux ratio at 2 h, 80 μM (BCRP [4]; pH 7.4, Efflux ratio (ER), hCMEC/D3 without inhibitor Ko143, 80 μM, hCMEC/D3 monolayer): 1.5
- Papp A→B at 2 h, 40 μM (BCRP [4]; pH 7.4, with Ko143 1 μM): 2.71 ×10⁻⁶ cm/s
- Papp A→B at 2 h, 80 μM (BCRP [4]; pH 7.4, with Ko143 1 μM): 2.03 ×10⁻⁶ cm/s
- Papp B→A at 2 h, 40 μM (BCRP [4]; pH 7.4, with Ko143 1 μM): 3.07 ×10⁻⁶ cm/s
- Papp B→A at 2 h, 80 μM (BCRP [4]; pH 7.4, with Ko143 1 μM): 2.12 ×10⁻⁶ cm/s
- efflux ratio at 2 h, 40 μM (BCRP [4]; pH 7.4, with Ko143 1 μM, Efflux ratio (ER), hCMEC/D3 with inhibitor Ko143, 40 μM, hCMEC/D3 monolayer, 1 μM Ko143): 1.17
- efflux ratio at 2 h, 80 μM (BCRP [4]; pH 7.4, with Ko143 1 μM, Efflux ratio (ER), hCMEC/D3 with inhibitor Ko143, 80 μM, hCMEC/D3 monolayer, 1 μM Ko143): 1.31
SMILES: O=C1NC(=O)C(c2ccccc2)(c2ccccc2)N1 [PHT, phenytoin]
- Therapeutic plasma concentration range [1]: 40 to 80 µM
- BPZ accumulation in competitive substrate efflux assay in hCMEC/D3 cells (BCRP [2]): increased BPZ accumulation
- stimulation of BCRP ATPase activity (BCRP [3]): stimulated

- transport by BCRP (conclusion of bidirectional transport assay) (BCRP [4]; hCMEC/D3 monolayer): transports
- Papp A→B at 2 h, 300 µM (BCRP [4]; pH 7.4): 0.19 ×10⁻⁶ cm/s
- Papp A→B at 2 h, 600 μM (BCRP [4]; pH 7.4): 0.34 ×10⁻⁶ cm/s
- Papp B→A at 2 h, 300 µM (BCRP [4]; pH 7.4): 0.31 ×10⁻⁶ cm/s
- Papp B→A at 2 h, 600 μM (BCRP [4]; pH 7.4): 0.64 ×10⁻⁶ cm/s
- efflux ratio at 2 h (BCRP [4]; pH 7.4, Efflux ratio (ER) without inhibitor, at all the tested concentrations, hCMEC/D3 monolayer): > 1.5
- efflux ratio at 2 h, 300 µM (BCRP [4]; pH 7.4, Efflux ratio (ER), hCMEC/D3 without inhibitor Ko143, 300 μM, hCMEC/D3 monolayer): > 1.5
- efflux ratio at 2 h, 600 μM (BCRP [4]; pH 7.4, Efflux ratio (ER), hCMEC/D3 without inhibitor Ko143, 600 μM, hCMEC/D3 monolayer): > 1.5
- Papp A→B at 2 h, 300 µM (BCRP [4]; pH 7.4, with Ko143 1 μM): 0.21 ×10⁻⁶ cm/s
- Papp A→B at 2 h, 600 μM (BCRP [4]; pH 7.4, with Ko143 1 μM): 0.33 ×10⁻⁶ cm/s
- Papp B→A at 2 h, 300 µM (BCRP [4]; pH 7.4, with Ko143 1 μM): 0.24 ×10⁻⁶ cm/s
- Papp B→A at 2 h, 600 μM (BCRP [4]; pH 7.4, with Ko143 1 μM): 0.37 ×10⁻⁶ cm/s
- efflux ratio at 2 h (BCRP [4]; pH 7.4, with Ko143 1 µM, Efflux ratio (ER) in the presence of Ko143, at all the tested concentrations, hCMEC/D3 monolayer, 1 μM Ko143): ~1
- efflux ratio at 2 h, 300 µM (BCRP [4]; pH 7.4, with Ko143 1 µM, Efflux ratio (ER), hCMEC/D3 with inhibitor Ko143, 300 μM, hCMEC/D3 monolayer, 1 μM Ko143): 1.1
- efflux ratio at 2 h, 600 μM (BCRP [4]; pH 7.4, with Ko143 1 μM, Efflux ratio (ER), hCMEC/D3 with inhibitor Ko143, 600 μM, hCMEC/D3 monolayer, 1 μM Ko143): 1.14
SMILES: CCCC(CCC)C(=O)O [VPA, valproic acid]
- Therapeutic plasma concentration range [1]: 300 to 600 µM
- BPZ accumulation in competitive substrate efflux assay in hCMEC/D3 cells (BCRP [2]): increased BPZ accumulation
- stimulation of BCRP ATPase activity (BCRP [3]): stimulated

Source: article PMC12555108, “In‐vitro Assessment of BCRP‐Mediated Efflux of Antiseizure Medications in Human Blood‐Brain Barrier Cell Model” (Journal of Biochemical and Molecular Toxicology, 2025)
